What was measured:
[1] = system: BNX nu/nu mice; assay: Hair growth scoring in nude mice; format: in vivo; design: key: 1: Skin pink, no hair; 2: Skin thick, pigmented, no hair; 3: Skin thick, highly pigmented, no hair; 4: Skin thick, pigmented, scattered hair; 5: Hair 1-10% of area; 6: Hair 10-25% of area; 7: Hair 25-50% of area; 8: Hair 50-75% of area; 9: Hair >75% of area; Hair 100% covered; details: male nude mice, i.p. 3 times a week, at least 35 days, hair score scale 1-10
[2] = system: human HL60 myeloid leukemia cells; assay: Inhibition of clonal growth of HL60 cells; format: cell-based; details: effective dose that inhibited 50% clonal growth of human HL60 myeloid leukemia cells
[3] = system: MCF-7 breast cancer cells; assay: Inhibition of clonal growth of MCF-7 cells; format: cell-based, human; details: effective dose that inhibited 50% clonal growth of MCF-7 breast cancer cells
[4] = system: BNX nu/nu mice; assay: Hair growth scoring in nude mice; format: in vivo; design: key to Peak Score, Mouse 2: 1: Skin pink, no hair; 2: Skin thick, pigmented, no hair; 3: Skin thick, highly pigmented, no hair; 4: Skin thick, pigmented, scattered hair; 5: Hair 1-10% of area; 6: Hair 10-25% of area; 7: Hair 25-50% of area; 8: Hair 50-75% of area; 9: Hair >75% of area; Hair 100% covered
Protocol: In the experiments described herein, BNX nu/nu male and female mice at 8 weeks of age were used. In one series of experiments, a total of 3 males were allotted equally within each of the groups consisting of 6 different vitamin D3 compounds, and a control untreated group. In an addition, three male and 3 female mice received EB1089. All of the analogs were injected intraperitoneally (i.p.), three times a week in a volume of 200 μl phosphate buffered saline.
(§1) Vitamin D3 analogs were dissolved in absolute ethanol prior to determining the molar concentration as measured by UV absorbance using their molar extinction coefficient at […]. All the analogs were stored at −20° C. in absolute ethanol as stock solutions of 10^−3 mol/liter. The last dilution was made in phosphate buffered saline, prior to administration into mice. Vitamin D3 compounds were always protected from light. The inventors chose the highest dose that would not cause hypercalcemia. These doses, identified in previous experiments, are summarized below in Table 1.
The inventors developed the following scale for measuring hair growth in BNX mice:
The inventors examined hair growth of nude mice as the mice received diluant (control mice), 1.25(OH)2D3 or one of 6 vitamin D3 analogs. Each group contained three mice. The effect of Vitamin D3 analogs on hair growth of nude mice was systematically assessed on each mouse by giving them scores from a scale of 1-10 (Table1), 3 times a week. The score for hair growth takes in to account the thickness and pigmentation, as both of these characteristics correlate indirectly with induction of anagen, the growth phase of the hair cycle. For example, a score of […] represents skin thickening with heavy pigmentation; this reflects the formation of the hair shaft prior to the protrusion of hair above the skin surface.

[5] = Calcemic properties: highest dose that would not cause hypercalcemia; format: in vivo, mouse; details: identified in previous experiments
Protocol: as §1

[6] = system: CYP19 gene that encodes the P450 aromatase; assay: RT-PCR RNA analysis of skin samples for CYP19 expression; format: in vivo, mice; details: skin samples at the highest score of 7, RT-PCR, data not shown
Protocol: Skin samples from mice were processed as is routinely done in the art. RT-PCR was performed to make cDNA which was examined for expression of CYP19 gene that encodes the P450 aromatase (9).
Skin samples at the highest score of 7 from Ro-25-9022 and control skin sample were processed to extract RNA, cDNA was made and amplified for the expression of CYP19 gene that encodes P450 aromatase.

[7] = male nude mice, i.p. 3 times a week, at least 35 days, hair score scale 1-10
[8] = male nude mice, three mice per group, i.p. 3 times a week, hair score scale 1-10
[9] = female nude mice, i.p. 3 times a week, hair score scale 1-10

Row | Compound | Peak Score, Mouse 3 [1] | ED50 HL60 [2] | ED50 MCF-7 [3] | Peak Score, Mouse 1 [4, 7] | Peak Score, Mouse 2 [4, 7] | Mean Peak Score [4, 8] | hair growth score reached, not exceeded ([4]; nude mice, scored 3 times a week, scale 1-10) | NON-HYPERCALCEMIC DOSE [5] | timing of first peak of hair growth, females vs males ([4]; FIG. 3F) | ability to stimulate hair growth in male and female mice ([4]; both males and females) | latency period to achieve maximal hair growth ([4]; female nude mice) | Peak Score, Mouse 1 [4, 9] | Peak Score, Mouse 2 [4, 9] | Peak Score, Mouse 3 [4, 9] | Mean Peak Score ([4]; female nude mice, three mice, i.p. 3 times a week, hair score scale 1-10) | latency period to achieve maximal hair growth ([4]; male nude mice) | time of second cycle of hair growth from the first cycle ([4]; nude mice) | expression of CYP19 gene (P450 aromatase) vs control skin sample [6]
1 | C=C1/C(=C\C=C2/CCC[C@]3(C)[C@@H]([C@H](C)CCCC(C)(C)O)CC[C@@H]23)C[C@@H](O)C[C@@H]1O [1,25(OH)2D3, reference compound] | 4 | 1 × 10^−8 MOLAR UNITS | 1 × 10^−7 MOLAR UNITS | 5 (Hair 1-10% of area) | 5 (Hair 1-10% of area) | 4.67 | 5 (Hair 1-10% of area) | 0.0626 μg/mouse |  |  |  |  |  |  |  |  |  | 
2 | C=C1/C(=C\C=C2/CCC[C@]3(C)[C@@H]([C@H](C)/C=C/C=C/C(O)(CC)CC)CC[C@@H]23)C[C@@H](O)C[C@@H]1O [EB1089] | 4 | 5 × 10^−11 MOLAR UNITS |  | 7 (Hair 25-50% of area) | 8 (Hair 50-75% of area) | 6.33 |  | 0.5 µg/kg | first peak of hair growth in females slightly preceded the peak in the males | Both males and females had hair stimulation | about 9 days | 7 (Hair 25-50% of area) | 7 (Hair 25-50% of area) | 7 (Hair 25-50% of area) | 7.00 | about 18 days | about 16 days | 
3 | C=C1/C(=C\C=C2/CCC[C@]3(C)[C@@H]([C@@H](C)OCCCC(O)(CC)CC)CC[C@@H]23)C[C@@H](O)C[C@@H]1O [KH1060, 1α, 25—(OH)2-20-epi-22-oxa-24,26,27-trishomo-vitamin D3] | 6 (Hair 10-25% of area) | 1 × 10^−12 MOLAR UNITS | 1 × 10^−10 MOLAR UNITS | 8 (Hair 50-75% of area) | 6 (Hair 10-25% of area) | 6.67 |  | 0.0125 μg/mouse |  |  |  |  |  |  |  | ~21 days |  | 
4 | C[C@H](C/C=C/C(O)(C(F)(F)F)C(F)(F)F)C1=CCC2/C(=C/C=C3C[C@@H](O)C[C@H](O)C3)CCC[C@]12C (stereo partly shown) [Ro25-9022, 1,25-(OH)2-16-ene-23-yne-26,27-F6-19-nor-D3] | 4 | 2 × 10^−10 MOLAR UNITS | 6 × 10^−10 MOLAR UNITS | 8 (Hair 50-75% of area) | 4 | 6.33 |  | 0.00125 μg/mouse |  |  |  |  |  |  |  |  |  | equivalent expression
5 | C[C@H](CCC(=O)C(C)(C)O)C1=CCC2/C(=C/C=C3C[C@@H](O)C[C@H](O)C3)CCC[C@]12C (stereo partly shown) [Ro26-9114] | 4 | 1 × 10^−10 MOLAR UNITS |  | 8 (Hair 50-75% of area) | 8 (Hair 50-75% of area) | 5.33 |  | 6 μg/mouse |  |  |  |  |  |  |  | about 9 days | about 16 days | 
6 | C[C@]12CCC/C(=C\C=C3C[C@@H](O)C[C@H](O)C3)C1CC[C@@H]2C1(C/C=C/C(O)(C(F)(F)F)C(F)(F)F)CC1 (stereo partly shown) [Ro27-0574] | 4 | 2 × 10^−10 MOLAR UNITS | 2 × 10^−9 MOLAR UNITS | 8 (Hair 50-75% of area) | 8 (Hair 50-75% of area) | 6.67 |  |  |  |  |  |  |  |  |  |  | about 16 days | 
7 | CC(C)(O)CCCC(CCCC(C)(C)O)[C@H]1CCC2/C(=C/C=C3C[C@@H](O)C[C@H](O)C3)CCC[C@@]21C (stereo partly shown) [Ro27-5646] | 6 (Hair 10-25% of area) | 2 × 10^−10 MOLAR UNITS | 4 × 10^−10 MOLAR UNITS | 8 (Hair 50-75% of area) | 8 (Hair 50-75% of area) | 7.33 |  | 0.01 μg/mouse |  |  |  |  |  |  |  |  |  | 

From US20030095937A1, “Method for stimulating hair growth by administering vitamin D analogs” (priority 2001, published 2003)
